In publication PMC11285769, “A pan-respiratory antiviral chemotype targeting a transient host multi-protein complex” (Open Biology, 2024):
Where “and” joins values, the source holds several entries; their conditions need not be identical. Equal entries are not always repeated.

What was measured:
FLUV A/WSN/33 = type: cell-based, influenza A/WSN/33
[1] = test system: SARS-CoV-2 Omicron variant (lineage B.A.1); type: cell-based
[2] = test system: SARS-CoV-2 delta variant (lineage B.1.617.2); type: cell-based
[3] = test system: SARS-CoV-2 gamma variant, lineage P.1; type: cell-based

CCOC(=O)C1=C[C@@H](OC(CC)CC)[C@H](NC(C)=O)[C@@H](N)C1 [Oseltamivir, reference compound]
activity against FLUV after 7 passages with compound (FLUV A/WSN/33): lost activity by passage 7

COc1c(CNC(=O)c2cc(C3CC3)nn2C)cccc1OC(F)(F)F [PAV-431]
efficacy against SARS-CoV-2 Omicron [1]: significant efficacy | efficacy against SARS-CoV-2 delta variant [2]: clear trend | viral load eliminated compared to vehicle [3]: ≥ 90%

COc1cccc(CNC(=O)c2cc(C3CC3)nn2C)c1OC [PAV-835]
activity against FLUV after 7 passages with compound (FLUV A/WSN/33): retained the same activity against FLUV as it did against a naive strain | percentage reduction in infection (FLUV A/WSN/33): 98.9 percentage and 91.9 percentage
